Results taken from article PMC4853435, “A cell cycle kinase with tandem sensory PAS domains integrates cell fate cues” (Nature Communications, 2016).
pIC50: −log10 of the molar value.

What was measured:
[1] = target: T1, CckA 197–544 (ΔPAS-A-ΔRD) (Caulobacter vibrioides, UniProt A0A0H3C8Q4); assay: SPR (Biacore T200, CckA variant amine-coupled to CM5 chip); type: binding; conditions: 50 mM HEPES pH 8, 200 mM KCl, 5 mM MgCl2, 25 °C
T1 construct: residues 197-544 (PAS-B, DHp, CA), His-tagged, E. coli, Ni-NTA; immobilised on SPR chip
T1 sequence (A0A0H3C8Q4 197-544): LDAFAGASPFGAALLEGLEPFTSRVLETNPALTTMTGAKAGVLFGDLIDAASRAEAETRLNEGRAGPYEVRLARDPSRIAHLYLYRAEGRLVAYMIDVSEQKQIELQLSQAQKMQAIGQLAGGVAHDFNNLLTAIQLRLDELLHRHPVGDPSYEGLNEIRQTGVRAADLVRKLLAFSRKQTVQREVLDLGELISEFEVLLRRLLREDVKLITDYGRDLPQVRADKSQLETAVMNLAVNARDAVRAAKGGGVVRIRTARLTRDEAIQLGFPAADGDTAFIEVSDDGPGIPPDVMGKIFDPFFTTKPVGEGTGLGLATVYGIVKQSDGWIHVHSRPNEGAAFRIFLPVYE

[2] = target: T2, CckA 70–544 (ΔRD) (Caulobacter vibrioides, UniProt A0A0H3C8Q4); assay: as above; type: binding; conditions: 50 mM HEPES pH 8, 200 mM KCl, 5 mM MgCl2, 25 °C
T2 construct: residues 70-544 (PAS-A, PAS-B, DHp, CA), receiver domain removed, His-tagged, E. coli, Ni-NTA; immobilised on SPR chip
T2 sequence (A0A0H3C8Q4 70-544): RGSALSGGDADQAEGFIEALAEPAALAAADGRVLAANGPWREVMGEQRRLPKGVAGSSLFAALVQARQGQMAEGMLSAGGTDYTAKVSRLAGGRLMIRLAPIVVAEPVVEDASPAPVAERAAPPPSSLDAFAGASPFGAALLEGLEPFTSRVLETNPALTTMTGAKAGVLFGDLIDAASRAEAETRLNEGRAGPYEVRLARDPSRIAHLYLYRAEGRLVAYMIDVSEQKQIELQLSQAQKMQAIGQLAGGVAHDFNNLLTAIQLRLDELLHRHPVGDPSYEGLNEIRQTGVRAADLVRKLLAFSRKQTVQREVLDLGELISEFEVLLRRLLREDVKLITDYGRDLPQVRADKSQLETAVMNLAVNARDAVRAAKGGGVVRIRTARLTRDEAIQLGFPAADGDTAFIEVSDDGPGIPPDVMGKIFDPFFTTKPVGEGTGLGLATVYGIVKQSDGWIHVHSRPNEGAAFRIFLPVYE

[3] = target: T3, CckA 70–295 (ΔDHp-ΔCA-ΔRD) (Caulobacter vibrioides, UniProt A0A0H3C8Q4); assay: as above; type: binding; conditions: 50 mM HEPES pH 8, 200 mM KCl, 5 mM MgCl2, 25 °C
T3 construct: residues 70-295 (PAS-A, PAS-B), pJAB41 in pET28b(+), His-tagged, E. coli, Ni-NTA; immobilised on SPR chip
T3 sequence (A0A0H3C8Q4 70-295): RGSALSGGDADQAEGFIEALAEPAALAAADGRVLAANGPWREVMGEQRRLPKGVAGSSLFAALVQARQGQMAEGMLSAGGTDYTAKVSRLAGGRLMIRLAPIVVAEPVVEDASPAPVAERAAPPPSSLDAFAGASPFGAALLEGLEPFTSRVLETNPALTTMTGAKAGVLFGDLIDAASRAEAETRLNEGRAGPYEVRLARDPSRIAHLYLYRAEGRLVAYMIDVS

[4] = target: T4, CckA 197–691 (ΔPAS-A) (Caulobacter vibrioides, UniProt A0A0H3C8Q4); assay: autophosphorylation with [gamma-32P]ATP, nitrocellulose capture, phosphorimaging; type: biochemical
T4 construct: residues 197-691 (PAS-B, DHp, CA, RD), His-tagged, E. coli, Ni-NTA
T4 sequence (A0A0H3C8Q4 197-691): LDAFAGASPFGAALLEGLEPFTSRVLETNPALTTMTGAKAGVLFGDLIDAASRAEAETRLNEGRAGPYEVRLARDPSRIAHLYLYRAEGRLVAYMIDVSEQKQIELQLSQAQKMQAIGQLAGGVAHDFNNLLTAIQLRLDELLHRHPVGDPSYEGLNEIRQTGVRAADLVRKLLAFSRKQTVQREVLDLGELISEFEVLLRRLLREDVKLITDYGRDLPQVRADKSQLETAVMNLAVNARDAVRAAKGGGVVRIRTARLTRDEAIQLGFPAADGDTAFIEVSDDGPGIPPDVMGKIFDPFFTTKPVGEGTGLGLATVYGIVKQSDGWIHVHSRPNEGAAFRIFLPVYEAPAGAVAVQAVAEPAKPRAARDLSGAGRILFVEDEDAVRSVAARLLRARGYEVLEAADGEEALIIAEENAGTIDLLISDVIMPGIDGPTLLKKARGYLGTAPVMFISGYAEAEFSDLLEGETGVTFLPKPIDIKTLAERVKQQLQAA

[5] = target: T5, CckA 70–378 (ΔCA-ΔRD) (Caulobacter vibrioides, UniProt A0A0H3C8Q4); assay: SPR (Biacore T200, CckA variant amine-coupled to CM5 chip); type: binding; conditions: 50 mM HEPES pH 8, 200 mM KCl, 5 mM MgCl2, 25 °C
T5 construct: residues 70-378 (PAS-A, PAS-B, DHp), His-tagged, E. coli, Ni-NTA; immobilised on SPR chip
T5 sequence (A0A0H3C8Q4 70-378): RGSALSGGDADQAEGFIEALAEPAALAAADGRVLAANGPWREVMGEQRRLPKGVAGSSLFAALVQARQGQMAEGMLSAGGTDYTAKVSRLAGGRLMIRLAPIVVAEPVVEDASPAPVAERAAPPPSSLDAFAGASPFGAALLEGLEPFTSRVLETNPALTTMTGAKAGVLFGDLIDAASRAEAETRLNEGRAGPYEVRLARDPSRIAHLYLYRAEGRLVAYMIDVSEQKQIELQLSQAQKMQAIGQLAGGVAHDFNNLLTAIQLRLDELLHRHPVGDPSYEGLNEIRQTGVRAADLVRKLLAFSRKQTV

[6] = target: T6, CckA 70–691 (WT) (Caulobacter vibrioides, UniProt A0A0H3C8Q4); assay: autophosphorylation with [gamma-32P]ATP, nitrocellulose capture, phosphorimaging; type: biochemical
T6 construct: cytosolic region 70-691 (PAS-A, PAS-B, DHp, CA, RD), transmembrane helices removed, N-terminal His6 tag, E. coli, Ni-NTA
T6 sequence (A0A0H3C8Q4 70-691): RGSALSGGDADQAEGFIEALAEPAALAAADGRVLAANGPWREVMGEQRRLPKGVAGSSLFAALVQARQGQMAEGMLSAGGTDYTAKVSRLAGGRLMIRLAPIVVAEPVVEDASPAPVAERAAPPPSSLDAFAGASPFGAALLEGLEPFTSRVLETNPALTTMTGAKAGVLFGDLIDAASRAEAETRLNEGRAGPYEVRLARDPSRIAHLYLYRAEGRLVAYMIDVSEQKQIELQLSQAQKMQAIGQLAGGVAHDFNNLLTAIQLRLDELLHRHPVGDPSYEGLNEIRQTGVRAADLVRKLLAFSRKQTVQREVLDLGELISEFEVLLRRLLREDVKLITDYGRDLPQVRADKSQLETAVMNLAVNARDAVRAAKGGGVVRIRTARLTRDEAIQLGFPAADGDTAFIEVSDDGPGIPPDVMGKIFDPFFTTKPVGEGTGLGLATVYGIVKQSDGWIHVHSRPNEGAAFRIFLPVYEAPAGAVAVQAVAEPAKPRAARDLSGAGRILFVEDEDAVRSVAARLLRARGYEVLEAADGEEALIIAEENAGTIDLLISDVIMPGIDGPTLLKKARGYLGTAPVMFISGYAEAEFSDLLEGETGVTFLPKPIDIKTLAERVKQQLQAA

pIC50 [4]: 4.66
pIC50 [6]: 4.57
SMILES: Nc1nc2c(ncn2[C@@H]2O[C@@H]3COP(=O)(O)O[C@H]4[C@@H](O)[C@H](n5cnc6c(=O)[nH]c(N)nc65)O[C@@H]4COP(=O)(O)O[C@H]3[C@H]2O)c(=O)[nH]1 [c-di-GMP]
SPR (Biacore T200, CckA variant amine-coupled to CM5 chip) [1]: Each construct still displayed concentration dependence in response to c-di-GMP
SPR (Biacore T200, CckA variant amine-coupled to CM5 chip) [2]: The concentration-dependent response we observed demonstrates that c-di-GMP directly binds CckA
SPR (Biacore T200, CckA variant amine-coupled to CM5 chip) [3]: Each construct still displayed concentration dependence in response to c-di-GMP
SPR (Biacore T200, CckA variant amine-coupled to CM5 chip) [5]: removal of the ATP-binding CA domain resulted in a minor reduction in c-di-GMP binding
